Source: patent US20150352209A1, “NANOFIBER HAVING SELF-HEATING […] BIOLOGICALLY ACTIVE SUBSTANCE RELEASE PROPERTIES, PRODUCTION METHOD FOR SAME, AND NONWOVEN FABRIC HAVING SELF-HEATING […] BIOLOGICALLY ACTIVE SUBSTANCE RELEASE CAPABILITIES” (NATIONAL INSTITUTE FOR MATERIALS SCIENCE, priority 2013, published 2015)

System: COLO679 cell, which is a human melanoma cell line
Assay: Cancer cell killing test (cell proliferation index)
Type: cell-based
Conditions: COLO679 cells; anticancer drug added instead of application of alternating magnetic field

COc1cccc2c1C(=O)c1c(O)c3c(c(O)c1C2=O)C[C@@](O)(C(=O)CO)C[C@@H]3O[C@H]1C[C@H](N)[C@H](O)[C@H](C)O1 [free anticancer drug, doxorubicin]
change of cell proliferation index (CPI): the decrease amount of the CPI was smaller than in the case in which the sample in Example 1 was used
